Reference: patent US7192924B2, “Corticotropin releasing factor 2 receptor agonists” (priority 2002, dated 2007)
Peptide text beside a SMILES is read from it.

What was measured:
CRF1R = biological target: T1, CRF1R (Homo sapiens, UniProt P34998); assay: CRF1R agonist activity (EC50, Emax), called comparative CRF binding; assay type: cell-based; conditions: read-out: CRF1R EC50
T1 sequence (P34998 24-415): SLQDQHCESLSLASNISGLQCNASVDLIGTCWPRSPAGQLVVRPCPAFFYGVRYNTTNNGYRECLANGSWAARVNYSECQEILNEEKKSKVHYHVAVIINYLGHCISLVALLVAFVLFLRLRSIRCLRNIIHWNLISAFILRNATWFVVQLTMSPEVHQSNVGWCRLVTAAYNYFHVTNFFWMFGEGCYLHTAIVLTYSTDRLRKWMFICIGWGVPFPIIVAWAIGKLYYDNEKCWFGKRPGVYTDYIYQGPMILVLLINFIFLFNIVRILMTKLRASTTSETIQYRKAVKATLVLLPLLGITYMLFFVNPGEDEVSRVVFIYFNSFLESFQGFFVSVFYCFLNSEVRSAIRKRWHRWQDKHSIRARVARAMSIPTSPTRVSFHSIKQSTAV
Text: (§1) The pharmacological activity and selectivity of the peptides of present invention can be determined using published test procedures. See, e.g, U.S. patent application Ser. No. 09/799,978. Because CRF2R and CRF1R are homologous proteins, it is expected that a certain proportion of agonists for CRF2R will also function as agonists of CRF1R. As discussed above, activation of CRF1R induces activation of the HPA axis since increased corticosteroid production leads to skeletal muscle atrophy. In most cases in which an increase in muscle mass or function is desired, it is not desirable to activate the HPA axis.
(§2) Because it is desirable to discriminate binding between CRF2R, as compared with CRF1R, the assays described above may be conducted using a cell, or membrane from a cell, which expresses only CRF2R or the assays can be conducted with a recombinant source of CRF2R. Cells expressing both forms of CRFR may be modified using homologous recombination to inactivate or otherwise disable the CRF1R gene. Alternatively, if the source of CRFR contains more than one CRFR type, the background signal produced by the receptor which is not of interest must be subtracted from the signal obtained in the assay. […] Known antagonists of CRFRs include, but, are not limited to, antalarmin (CRF1R selective), antisauvagine-30 (CRF2R selective) and astressin (nonselective for CRF1R/CRF2R).
(§3) Cell-based assays include the steps of contacting cells which express CRF1R or CRF2R with a peptide of the present invention or control and measuring activation of the CRFR by measuring the expression or activity of components of the CRFR signal transduction pathways.
(§4) As described in the background section above, CRFRs appear to couple through several different pathways including Gαs, Gαq or Gαi, depending upon the cell type. It is thought that agonist activation of CRFR allows the receptor to signal via any of these pathways, provided that the necessary pathway components are present in the particular cell type. Thus, to assay a particular peptide of the present invention for CRFR activation, an assay can use any of the signal transduction pathways as the readout even if the relevant cell type for treatment, in vivo, couples CRFR to skeletal muscle atrophy via a different pathway. […] Assays for measuring activation of these signaling pathways are known in the art.
(§5) For example, after contact with a peptide of the present invention, lysates of the cells can be prepared and assayed for induction of cAMP. cAMP is induced in response to Gαs activation. Because Gαs is activated by receptors other than CRFR and because a test peptide may be exerting its effect through CRFRs or by another mechanism, two control comparisons are relevant for determining whether the peptide increases levels of cAMP via activation of a CRFR. One control compares the cAMP level of cells contacted with the peptide and the cAMP level of cells contacted with a control compound (i.e., the vehicle in which the peptide is dissolved).
(§6) In one example, cAMP induction is measured with the use of DNA constructs containing the cAMP responsive element linked to any of a variety of reporter genes can be introduced into cells expressing CRFRs. Such reporter genes include, but are not limited to, chloramphenicol acetyltransferase (CAT), luciferase, glucuronide synthetase, growth hormone, fluorescent proteins (e.g., Green Fluorescent Protein), or alkaline phosphatase. Following exposure of the cells to the peptide, the level of reporter gene expression can be quantitated to determine the peptide's ability to increase cAMP levels and thus determine the peptide's ability to activate the CRFR.
(§7) In addition to using cells expressing full length CRFRs, cells can be engineered which express CRFRs containing the ligand binding domain of the receptor coupled to, or physically modified to contain, reporter elements or to interact with signaling proteins.

CRF2R = biological target: T2, CRF2R (Homo sapiens, UniProt Q13324); assay: CRF2R agonist activity (EC50, Emax), called comparative CRF binding; assay type: cell-based; conditions: read-out: CRF2R EC50
T2 sequence (Q13324 1-411): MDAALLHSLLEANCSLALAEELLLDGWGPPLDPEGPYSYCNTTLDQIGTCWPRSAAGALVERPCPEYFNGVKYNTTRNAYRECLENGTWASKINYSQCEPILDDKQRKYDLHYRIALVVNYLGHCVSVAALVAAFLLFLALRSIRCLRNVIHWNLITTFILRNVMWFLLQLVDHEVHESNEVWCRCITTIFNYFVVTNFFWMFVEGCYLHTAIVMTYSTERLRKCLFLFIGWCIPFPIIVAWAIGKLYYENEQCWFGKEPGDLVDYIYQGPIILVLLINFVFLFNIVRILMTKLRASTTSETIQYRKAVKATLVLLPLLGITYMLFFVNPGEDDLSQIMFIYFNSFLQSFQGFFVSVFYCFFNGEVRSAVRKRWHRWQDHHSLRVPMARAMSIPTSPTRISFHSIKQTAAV
Text: as §1, §2, §3, §4, §5, §6, §7

CC[C@H](C)[C@H](N)C(=O)N[C@H](C(=O)N[C@@H](CC(C)C)C(=O)N[C@@H](CO)C(=O)N[C@@H](CC(C)C)C(=O)N[C@@H](CC(=O)O)C(=O)N[C@H](C(=O)N1CCC[C@H]1C(=O)N[C@H](C(=O)NCC(=O)N[C@@H](CC(C)C)C(=O)N[C@@H](CC(C)C)C(=O)N[C@@H](CCC(N)=O)C(=O)N[C@H](C(=O)N[C@@H](CC(C)C)C(=O)N[C@@H](CC(C)C)C(=O)N[C@@H](CCC(=O)O)C(=O)N[C@@H](CCC(N)=O)C(=O)N[C@@H](CCC(=O)O)C(=O)N[C@@H](CCCNC(=N)N)C(=O)N[C@@H](CCC(N)=O)C(=O)N[C@@H](CCC(=O)O)C(=O)N[C@@H](C)C(=O)N[C@@H](C)C(=O)N[C@@H](CCCNC(=N)N)C(=O)N[C@@H](CCC(=O)O)C(=O)N[C@@H](CCC(N)=O)C(=O)N[C@@H](C)C(=O)N[C@H](C(=O)N[C@H](C(=O)N[C@@H](CC(N)=O)C(=O)N[C@@H](C)C(=O)N[C@@H](CCCNC(=N)N)C(=O)N[C@H](C(=O)N[C@@H](CC(C)C)C(=O)N[C@@H](C)C(=O)N[C@@H](CCCNC(=N)N)C(=O)N[C@H](C(N)=O)C(C)C)[C@@H](C)CC)[C@@H](C)O)[C@@H](C)O)[C@@H](C)CC)[C@@H](C)CC)C(C)C)C(C)C [compound 118] (H-IVLSLDVPIGLLQILLEQERQEAAREQATTNARILARV-NH2; N-terminus assumed)
EC50 (CRF1R): > 100 nM
EC50 (CRF2R): 14.6 nM

CC[C@H](C)[C@H](N)C(=O)N[C@H](C(=O)N[C@@H](CC(C)C)C(=O)N[C@@H](CO)C(=O)N[C@@H](CC(C)C)C(=O)N[C@@H](CC(=O)O)C(=O)N[C@H](C(=O)N1CCC[C@H]1C(=O)N[C@H](C(=O)NCC(=O)N[C@@H](CC(C)C)C(=O)N[C@@H](CC(C)C)C(=O)N[C@@H](CCC(N)=O)C(=O)N[C@H](C(=O)N[C@@H](CC(C)C)C(=O)N[C@@H](CC(C)C)C(=O)N[C@@H](CCC(=O)O)C(=O)N[C@@H](CCC(N)=O)C(=O)N[C@@H](CCC(=O)O)C(=O)N[C@@H](CCCCN)C(=O)N[C@@H](C)C(=O)N[C@@H](CCCNC(=N)N)C(=O)N[C@@H](C)C(=O)N[C@@H](C)C(=O)N[C@@H](CCCNC(=N)N)C(=O)N[C@@H](CCC(=O)O)C(=O)N[C@@H](CCC(N)=O)C(=O)N[C@@H](C)C(=O)N[C@H](C(=O)N[C@H](C(=O)N[C@@H](CC(N)=O)C(=O)N[C@@H](C)C(=O)N[C@@H](CCCNC(=N)N)C(=O)N[C@H](C(=O)N[C@@H](CC(C)C)C(=O)N[C@@H](C)C(=O)N[C@@H](CCCNC(=N)N)C(=O)N[C@H](C(N)=O)C(C)C)[C@@H](C)CC)[C@@H](C)O)[C@@H](C)O)[C@@H](C)CC)[C@@H](C)CC)C(C)C)C(C)C [compound 121] (H-IVLSLDVPIGLLQILLEQEKARAAREQATTNARILARV-NH2)
EC50 (CRF1R): > 100 nM
EC50 (CRF2R): 5.67 nM

CC[C@H](C)[C@H](N)C(=O)N[C@H](C(=O)N[C@@H](CC(C)C)C(=O)N[C@@H](CO)C(=O)N[C@@H](CC(C)C)C(=O)N[C@@H](CC(=O)O)C(=O)N[C@H](C(=O)N1CCC[C@H]1C(=O)N[C@H](C(=O)NCC(=O)N[C@@H](CC(C)C)C(=O)N[C@@H](CC(C)C)C(=O)N[C@@H](CCC(N)=O)C(=O)N[C@H](C(=O)N[C@@H](CC(C)C)C(=O)N[C@@H](CC(C)C)C(=O)N[C@@H](CCC(=O)O)C(=O)N[C@@H](CCC(N)=O)C(=O)N[C@@H](C)C(=O)N[C@@H](CCCNC(=N)N)C(=O)N[C@@H](C)C(=O)N[C@@H](CCC(=O)O)C(=O)N[C@@H](C)C(=O)N[C@@H](C)C(=O)N[C@@H](CCCNC(=N)N)C(=O)N[C@@H](CCC(=O)O)C(=O)N[C@@H](CCC(N)=O)C(=O)N[C@@H](C)C(=O)N[C@H](C(=O)N[C@H](C(=O)N[C@@H](CC(N)=O)C(=O)N[C@@H](C)C(=O)N[C@@H](CCCNC(=N)N)C(=O)N[C@H](C(=O)N[C@@H](CC(C)C)C(=O)N[C@@H](C)C(=O)N[C@@H](CCCNC(=N)N)C(=O)N[C@H](C(N)=O)C(C)C)[C@@H](C)CC)[C@@H](C)O)[C@@H](C)O)[C@@H](C)CC)[C@@H](C)CC)C(C)C)C(C)C [compound 122] (H-IVLSLDVPIGLLQILLEQARAEAAREQATTNARILARV-NH2; N-terminus assumed)
EC50 (CRF1R): ≥ 1000 nM
EC50 (CRF2R): 3.31 nM

CC[C@H](C)[C@H](N)C(=O)N[C@H](C(=O)N[C@@H](CC(C)C)C(=O)N[C@@H](CO)C(=O)N[C@@H](CC(C)C)C(=O)N[C@@H](CC(=O)O)C(=O)N[C@H](C(=O)N1CCC[C@H]1C(=O)N[C@H](C(=O)NCC(=O)N[C@@H](CC(C)C)C(=O)N[C@@H](CC(C)C)C(=O)N[C@@H](CCC(N)=O)C(=O)N[C@H](C(=O)N[C@@H](CC(C)C)C(=O)N[C@@H](CC(C)C)C(=O)N[C@@H](CCC(=O)O)C(=O)N[C@@H](CCC(N)=O)C(=O)N[C@@H](C)C(=O)N[C@@H](CCCNC(=N)N)C(=O)N[C@@H](CCC(N)=O)C(=O)N[C@@H](CCC(=O)O)C(=O)N[C@@H](C)C(=O)N[C@@H](C)C(=O)N[C@@H](CCCNC(=N)N)C(=O)N[C@@H](CCC(=O)O)C(=O)N[C@@H](CCC(N)=O)C(=O)N[C@@H](C)C(=O)N[C@H](C(=O)N[C@H](C(=O)N[C@@H](CC(N)=O)C(=O)N[C@@H](C)C(=O)N[C@@H](CCCNC(=N)N)C(=O)N[C@H](C(=O)N[C@@H](CC(C)C)C(=O)N[C@@H](C)C(=O)N[C@@H](CCCNC(=N)N)C(=O)N[C@H](C(N)=O)C(C)C)[C@@H](C)CC)[C@@H](C)O)[C@@H](C)O)[C@@H](C)CC)[C@@H](C)CC)C(C)C)C(C)C [compound 123] (H-IVLSLDVPIGLLQILLEQARQEAAREQATTNARILARV-NH2; N-terminus assumed)
EC50 (CRF1R): > 1000 nM
EC50 (CRF2R): 3.49 nM

CC[C@H](C)[C@H](N)C(=O)N[C@H](C(=O)N[C@@H](CC(C)C)C(=O)N[C@@H](CO)C(=O)N[C@@H](CC(C)C)C(=O)N[C@@H](CC(=O)O)C(=O)N[C@H](C(=O)N1CCC[C@H]1C(=O)N[C@H](C(=O)NCC(=O)N[C@@H](CC(C)C)C(=O)N[C@@H](CC(C)C)C(=O)N[C@@H](CCC(N)=O)C(=O)N[C@H](C(=O)N[C@@H](CC(C)C)C(=O)N[C@@H](CC(C)C)C(=O)N[C@@H](CCC(=O)O)C(=O)N[C@@H](CCC(N)=O)C(=O)N[C@@H](CCC(=O)O)C(=O)N[C@@H](CCCCN)C(=O)N[C@@H](CCC(N)=O)C(=O)N[C@@H](CCC(=O)O)C(=O)N[C@@H](C)C(=O)N[C@@H](C)C(=O)N[C@@H](CCCNC(=N)N)C(=O)N[C@@H](CCC(=O)O)C(=O)N[C@@H](CCC(N)=O)C(=O)N[C@@H](C)C(=O)N[C@H](C(=O)N[C@H](C(=O)N[C@@H](CC(N)=O)C(=O)N[C@@H](C)C(=O)N[C@@H](CCCNC(=N)N)C(=O)N[C@H](C(=O)N[C@@H](CC(C)C)C(=O)N[C@@H](C)C(=O)N[C@@H](CCCNC(=N)N)C(=O)N[C@H](C(N)=O)C(C)C)[C@@H](C)CC)[C@@H](C)O)[C@@H](C)O)[C@@H](C)CC)[C@@H](C)CC)C(C)C)C(C)C [compound 125] (H-IVLSLDVPIGLLQILLEQEKQEAAREQATTNARILARV-NH2; N-terminus assumed)
EC50 (CRF1R): > 100 nM
EC50 (CRF2R): 4.47 nM
